For one assay, the system named is MCF7. Briefly: Antiproliferative activity against human MCF7 cells measured after 24 hrs by MTT assay. The format is functional, cell-based. The conditions noted are these: MCF7, 24 h.
In assay [1] the target is Clathrin heavy chain 1 (Homo sapiens) (UniProt Q00610). Put plainly: Binding affinity to clathrin heavy chain 1 in human PC3 cells at 20 to 40 uM measured after 2 hrs by DARTS assay. It is filed as cell-based.
In the next assay the test system is PC-3. Briefly: Antiproliferative activity against human PC3 cells measured after 24 hrs by MTT assay. The format is functional, cell-based. The settings on record: PC-3, 24 h.
Assay [2] concerns the target Clathrin heavy chain 1 (Homo sapiens) (UniProt Q00610). Put plainly: Binding affinity to clathrin heavy chain 1 in human MCF7 cells at 20 to 40 uM measured after 2 hrs by DARTS assay. It is filed as cell-based.
Assay [3] shares this target. Put plainly: Modulation of clathrin heavy chain 1 in human PC3 cells assessed as effect on transferrin endocytosis at 5 to 25 uM pretreated for 15 mins followed by trasnferrin conjugate addition measured after 15 mins by laser scanning confocal microscopic analysis. It is filed as cell-based.
For assay [4] the target is unchanged. Briefly: Inhibition of clathrin heavy chain 1 in human PC3 cells assessed as suppression of transferrin internalization at 30 uM pretreated for 15 mins followed by trasnferrin conjugate addition measured after 15 mins by laser scanning confocal microscopic analysis. It is filed as cell-based.

Activity calls are given as the source filed them. No cut-off for these calls is given here.

Sequence of Clathrin heavy chain 1 (Homo sapiens) (Q00610 whole entry): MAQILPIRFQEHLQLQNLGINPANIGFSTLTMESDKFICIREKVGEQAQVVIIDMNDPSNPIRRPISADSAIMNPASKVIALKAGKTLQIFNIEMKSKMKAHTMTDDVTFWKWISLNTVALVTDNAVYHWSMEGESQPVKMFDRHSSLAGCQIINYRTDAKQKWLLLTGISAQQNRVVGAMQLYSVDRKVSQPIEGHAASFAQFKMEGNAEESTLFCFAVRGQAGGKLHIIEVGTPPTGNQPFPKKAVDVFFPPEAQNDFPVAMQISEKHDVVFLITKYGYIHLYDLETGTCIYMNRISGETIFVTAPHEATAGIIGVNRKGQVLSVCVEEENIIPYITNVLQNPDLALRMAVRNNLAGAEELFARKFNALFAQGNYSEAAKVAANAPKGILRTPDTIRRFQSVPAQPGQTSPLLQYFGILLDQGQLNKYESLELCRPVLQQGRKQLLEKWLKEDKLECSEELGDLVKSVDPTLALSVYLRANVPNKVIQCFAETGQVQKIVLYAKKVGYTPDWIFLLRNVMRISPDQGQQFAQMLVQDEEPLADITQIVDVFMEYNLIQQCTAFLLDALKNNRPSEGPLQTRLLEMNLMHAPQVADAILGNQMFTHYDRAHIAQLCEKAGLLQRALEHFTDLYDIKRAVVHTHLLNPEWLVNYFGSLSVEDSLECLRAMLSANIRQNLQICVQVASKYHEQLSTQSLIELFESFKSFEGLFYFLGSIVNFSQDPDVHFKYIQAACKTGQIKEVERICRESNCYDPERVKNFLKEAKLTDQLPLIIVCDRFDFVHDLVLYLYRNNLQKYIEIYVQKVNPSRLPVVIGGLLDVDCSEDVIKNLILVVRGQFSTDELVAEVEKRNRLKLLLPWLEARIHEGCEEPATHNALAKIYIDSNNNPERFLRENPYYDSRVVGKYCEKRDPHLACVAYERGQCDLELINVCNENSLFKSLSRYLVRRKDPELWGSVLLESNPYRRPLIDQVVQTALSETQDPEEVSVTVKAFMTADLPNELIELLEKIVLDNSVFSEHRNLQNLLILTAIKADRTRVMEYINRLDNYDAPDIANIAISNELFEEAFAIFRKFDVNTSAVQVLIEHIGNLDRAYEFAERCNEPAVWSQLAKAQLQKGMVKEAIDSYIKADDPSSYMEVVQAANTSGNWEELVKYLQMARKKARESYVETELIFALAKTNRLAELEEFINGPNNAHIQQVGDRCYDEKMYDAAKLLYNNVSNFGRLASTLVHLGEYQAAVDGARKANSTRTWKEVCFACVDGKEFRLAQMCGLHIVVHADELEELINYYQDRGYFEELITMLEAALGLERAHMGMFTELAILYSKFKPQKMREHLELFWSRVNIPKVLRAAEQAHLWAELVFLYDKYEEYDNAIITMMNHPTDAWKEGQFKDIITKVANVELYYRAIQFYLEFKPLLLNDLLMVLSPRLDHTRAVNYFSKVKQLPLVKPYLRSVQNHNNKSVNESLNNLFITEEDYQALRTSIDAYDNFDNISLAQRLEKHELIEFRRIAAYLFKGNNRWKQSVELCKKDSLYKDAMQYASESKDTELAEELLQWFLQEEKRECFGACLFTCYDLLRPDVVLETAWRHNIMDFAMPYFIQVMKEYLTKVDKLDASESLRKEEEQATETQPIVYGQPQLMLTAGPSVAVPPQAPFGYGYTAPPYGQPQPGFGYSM

With `C/C1=C/C2=C(C(=O)[C@H](C)C2)C(=O)[C@@H](C)C[C@@H]2[C@H](CC1)[C@@]2(C)CO[C@@H]1O[C@H](CO)[C@@H](O)[C@H](O)[C@H]1O`, the values for the IC50 with MCF7 and in the assay with PC-3 were 32 µM and 25 µM, respectively. Further, the outcome in assay [1], in assay [2] and in assay [3] was Active.
Consider `O=C1N=C(NS(=O)(=O)c2cccc3ccccc23)S/C1=C/c1ccc(Br)cc1`, for which the inhibition result in assay [4] is “Active”.

For the origin of these results see ChEMBL document CHEMBL4041487, “Drug Affinity Responsive Target Stability (DARTS) Identifies Laurifolioside as a New Clathrin Heavy Chain Modulator” (J Nat Prod, 2016).
